Results taken from patent US20250230165A1, “HETEROCYCLIC COMPOUNDS FOR USE IN THE TREATMENT OF CANCER” (ARTIOS PHARMA LIMITED, priority 2021, published 2025).
Counter-ions that a name gives are not always drawn.

The molecules below were run against T1, Human Polθ polymerase domain (aa1820-2590) (Homo sapiens, UniProt O75417) (assay: Polθ Polymerase Domain Kinact/KI Assay (PicoGreen)). Settings: 0.8 nM Polθ, 100 nM DNA substrate, kobs vs [I] fit for 2-step covalent inhibitor.
T1 construct: Human Polθ polymerase domain (aa1820-2590) was expressed in E. coli; made in house; host or cells: E. coli
T1 sequence (O75417 1820-2590): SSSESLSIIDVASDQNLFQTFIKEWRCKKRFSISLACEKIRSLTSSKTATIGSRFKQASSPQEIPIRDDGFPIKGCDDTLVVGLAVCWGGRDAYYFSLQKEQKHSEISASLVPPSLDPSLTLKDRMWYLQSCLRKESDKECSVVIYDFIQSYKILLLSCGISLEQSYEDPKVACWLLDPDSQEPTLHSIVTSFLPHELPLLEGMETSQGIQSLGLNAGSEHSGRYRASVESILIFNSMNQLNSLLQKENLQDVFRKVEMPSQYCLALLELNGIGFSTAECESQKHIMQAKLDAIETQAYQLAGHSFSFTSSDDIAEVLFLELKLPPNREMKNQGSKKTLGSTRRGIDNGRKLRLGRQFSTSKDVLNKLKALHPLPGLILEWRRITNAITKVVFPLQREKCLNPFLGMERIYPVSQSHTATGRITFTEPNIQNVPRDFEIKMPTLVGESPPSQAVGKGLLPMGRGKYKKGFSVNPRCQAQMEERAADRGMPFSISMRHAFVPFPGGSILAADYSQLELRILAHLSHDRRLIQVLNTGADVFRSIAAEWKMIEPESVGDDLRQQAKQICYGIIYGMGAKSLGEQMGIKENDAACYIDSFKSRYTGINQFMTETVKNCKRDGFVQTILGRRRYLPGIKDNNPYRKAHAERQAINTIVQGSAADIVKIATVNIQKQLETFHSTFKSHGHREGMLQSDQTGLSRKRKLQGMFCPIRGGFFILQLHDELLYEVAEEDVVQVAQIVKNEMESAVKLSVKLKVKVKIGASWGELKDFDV
Type: biochemical
In short: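 Enzyme 0.8 nM, annealed DNA substrate 100 nM, […]; 25 mM Tris pH 7.5, 5% glycerol, 0.01% Triton X-100, 0.1 mg/ml BSA, 1 mM DTT, 1% DMSO. Quench with EDTA at timepoints to 60 min; PicoGreen read. kobs from time courses → Kinact/KI.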

Row | Kinact/Kl | SMILES
1 | 1.68e+06 M⁻¹ s⁻¹ | Cc1cc(C(F)(F)F)cc(N2C(=O)C[C@@H]3CN(Cc4ccc(C5CN(C(=O)/C=C/CN(C)C)C5)cc4)c4c(F)cccc4N(C)C(=O)[C@H]32)n1 [Example 146, (3aR,11aS)-5-(4-(1-((E)-4-(dimethylamino)but-2-enoyl)azetidin-3-yl)benzyl)-6-fluoro-10-methyl-1-(6-methyl-4-(trifluoromethyl)pyridin-2-yl)-1,3a,4,5,10,11a-hexahydro-2H-benzo[b]pyrrolo[2,3-f][1,4]diazocine-2,11(3H)-dione]
2 | 920000 M⁻¹ s⁻¹ | C=CC(=O)N1CC(N2CCN(CCN3C[C@H]4CC(=O)N(c5cc(C(F)(F)F)cc(C)n5)[C@@H]4C(=O)N(C)c4cccc(Cl)c43)CC2=O)C1 [Example 112, (3aR,11aS)-5-(2-(4-(1-acryloylazetidin-3-yl)-3-oxopiperazin-1-yl)ethyl)-6-chloro-10-methyl-1-(6-methyl-4-(trifluoromethyl)pyridin-2-yl)-1,3a,4,5,10,11a-hexahydro-2H-benzo[b]pyrrolo[2,3-f][1,4]diazocine-2,11(3H)-dione]
3 | 73000 M⁻¹ s⁻¹ | C=CC(=O)N1CC(N2CCN(CCN3C[C@H]4CC(=O)N(c5cc(C(F)(F)F)cc(C)n5)[C@@H]4C(=O)N(C)c4cc(F)ccc43)CC2)C1 [Example 15, (3aR,11aS)-5-(2-(4-(1-acryloylazetidin-3-yl)piperazin-1-yl)ethyl)-8-fluoro-10-methyl-1-(6-methyl-4-(trifluoromethyl)pyridin-2-yl)-1,3a,4,5,10,11a-hexahydro-2H-benzo[b]pyrrolo[2,3-f][1,4]diazocine-2,11(3H)-dione]
4 | 230000 M⁻¹ s⁻¹ | C=CC(=O)N1CC(N2CC[C@@H](CN3C[C@H]4CC(=O)N(c5cc(C(F)(F)F)cc(C)n5)[C@@H]4C(=O)N(C)c4cccc(Cl)c43)[C@H](C#N)C2)C1 (single isomer, unassigned) [Example 226a]
5 | 1.13e+06 M⁻¹ s⁻¹ | C=CC(=O)N1Cc2nc(CN3C[C@H]4CC(=O)N(c5cc(C(F)(F)F)cc(C)n5)[C@@H]4C(=O)N(C)c4cccc(C)c43)cn2C[C@@H]1C(F)(F)F (racemic) [Example 322b, (3aR,11aS)-5-(((R/S)-7-acryloyl-6-(trifluoromethyl)-5,6,7,8-tetrahydro-imidazo[1,2-a]pyr-azin-2-yl)methyl)-6,10-dimethyl-1-(6-methyl-4-(trifluoro-methyl)pyridin-2-yl)-1,3a,4,5,10,11a-hexahydro-2H-benzo[b]pyrrolo[2,3-f][1,4]diazocine-2,11(3H)-dione]
6 | 3.07e+06 M⁻¹ s⁻¹ | C=C(CN(C)C)C(=O)N1CCn2cc(CN3C[C@H]4CC(=O)N(c5cc(C(F)(F)F)cc(C)n5)[C@@H]4C(=O)N(C)c4cccc(Cl)c43)nc2C1 [Example 159]
7 | 1.19e+06 M⁻¹ s⁻¹ | C=CC(=O)N1Cc2cc(CN3C[C@H]4CC(=O)N(c5cc(C(F)(F)F)cc(C)n5)[C@@H]4C(=O)N(C)c4cccc(Cl)c43)ccc2C1CC#N (single isomer, unassigned) [Example 287b]
8 | 330000 M⁻¹ s⁻¹ | C=CC(=O)N1CCOC[C@@H]1c1ccc(CN2C[C@H]3CC(=O)N(c4cc(C(F)(F)F)cc(C)n4)[C@@H]3C(=O)N(C)c3cccc(C)c32)cc1 (racemic) [Example 323b, (3aR,11aS)-5-(4-((S/R)-4-acryloyl-morpholin-3-yl)-benzyl)-6,10-dimeth-yl-1-(6-methyl-4-(trifluoromethyl)-pyridin-2-yl)-1,3a,4,5,10,11a-hexahydro-2H-benzo[b]pyrrolo [2,3-f][1,4]diazocine-2,11(3H)-dione]
9 | 1.6e+06 M⁻¹ s⁻¹ | Cc1cc(C(F)(F)F)cc(N2C(=O)C[C@@H]3CN(CC45CC(NC(=O)/C=C/CN(C)C)(C4)C5)c4c(C)cccc4N(C)C(=O)[C@H]32)n1 [Example 178, (E)-N-(3-(((3aR, 11aS)-6,10-dimeth-yl-1-(6-methyl-4-(trifluoromethyl)-pyridin-2-yl)-2,11-dioxo-1,2,3,3a,4, 10,11,11a-octa-hydro-5H-benzo [b]pyrrolo[2,3-f] [1,4]diazocin-5-yl)methyl)bicyclo [1.1.1]pentan-1-yl)-4-(dimethyl-amino)but-2-enamide]
10 | 1.17e+06 M⁻¹ s⁻¹ | C=CC(=O)N1Cc2ncc(CN3C[C@H]4CC(=O)N(c5cc(C(F)(F)F)cc(C)n5)[C@@H]4C(=O)N(C)c4cccc(Cl)c43)cc2C1CC#N (single isomer, unassigned) [Example 291a]
11 | 230000 M⁻¹ s⁻¹ | C=CC(=O)N1Cc2c(CN3C[C@H]4CC(=O)N(c5cc(C(F)(F)F)cc(C)n5)[C@@H]4C(=O)N(C)c4cccc(C)c43)nn(C)c2C1 [Example 317, (3aR,11aS)-5-((5-acryloyl-1-methyl-1,4,5,6-tetrahydro-pyrrolo[3,4-c]pyr-azol-3-yl)methyl)-6,10-dimethyl-1-(6-methyl-4-(trifluoro-methyl)pyridin-2-yl)-1,3a,4,5,10,11a-hexahydro-2H-benzo[b]pyrrolo [2,3-f][1,4]diazo-cine-2,11(3H)-dione]
12 | 400000 M⁻¹ s⁻¹ | C=CC(=O)N1CC(c2nccc(CN3C[C@H]4CC(=O)N(c5cc(C(F)(F)F)cc(C)n5)[C@@H]4C(=O)N(C)c4cccc(F)c43)n2)C1 [Example 129, (3aR,11aS)-5-((2-(1-acryloylazetidin-3-yl)pyrimidin-4-yl)methyl)-6-fluoro-10-methyl-1-(6-methyl-4-(trifluoromethyl)pyridin-2-yl)-1,3a,4,5,10,11a-hexahydro-2H-benzo[b]pyrrolo[2,3-f][1,4]diazocine-2,11(3H)-dione]
13 | 1.25e+06 M⁻¹ s⁻¹ | C#CC(=O)N1CCN(CCN2C[C@H]3CC(=O)N(c4cc(C(F)(F)F)cc(C)n4)[C@@H]3C(=O)N(C)c3cccc(C)c32)CC1 [Example 264, (3aR,11aS)-6,10-dimethyl-1-(6-methyl-4-(trifluoromethyl)pyridin-2-yl)-5-(2-(4-propioloylpiperazin-1-yl)ethyl)-1,3a,4,5,10,11a-hexahydro-2H-benzo[b]pyrrolo[2,3-f][1,4]diazocine-2,11(3H)-dione]
14 | 110000 M⁻¹ s⁻¹ | CC(=O)N1CCN(C/C=C/C(=O)Nc2ccc(CN3C[C@H]4CC(=O)N(c5cc(C(F)(F)F)cc(C)n5)[C@@H]4C(=O)N(C)c4cccc(C)c43)cc2)CC1 [Example 249, (E)-4-(4-acetylpiperazin-1-yl)-N-(4-(((3aR,11aS)-6,10-dimethyl-1-(6-methyl-4-(trifluoromethyl)pyridin-2-yl)-2,11-dioxo-1,2,3,3a,4,10,11,11a-octahydro-5H-benzo[b]pyrrolo[2,3-f][1,4]diazocin-5-yl)methyl)phenyl)but-2-enamide]
15 | 410000 M⁻¹ s⁻¹ | C=CC(=O)N1CC(N2CCN(CCN3C[C@H]4CC(=O)N(c5cc(C(F)(F)F)cc(C)n5)[C@@H]4C(=O)N(C)c4cccc(F)c43)CC2)C1 [Example 1, (3aR,11aS)-5-(2-(4-(1-Acryloylazetidin-3-yl)piperazin-1-yl)ethyl)-6-fluoro-10-methyl-1-(6-methyl-4-(trifluoromethyl)pyridin-2-yl)-1,3a,4,5,10,11a-hexahydro-2H-benzo[b]pyrrolo[2,3-f][1,4]diazocine-2,11(3H)-dione]
16 | 1.12e+06 M⁻¹ s⁻¹ | Cc1cc(C(F)(F)F)cc(N2C(=O)C[C@@H]3CN(Cc4ccc5c(c4)C(CC#N)N(C(=O)/C=C/CN(C)C)C5)c4c(Cl)cccc4N(C)C(=O)[C@H]32)n1 (single isomer, unassigned) [Example 311a]
17 | 80000 M⁻¹ s⁻¹ | C=CC(=O)N1Cc2cnc(CN3C[C@H]4CC(=O)N(c5cc(C(F)(F)F)cc(C)n5)[C@@H]4C(=O)N(C)c4cccc(Cl)c43)cc2C1 [Example 277, (3aR,11aS)-5-((2-acryloyl-2,3-dihydro-1H-pyrrolo[3,4-c]pyridin-6-yl)methyl)-6-chloro-10-methyl-1-(6-methyl-4-(trifluoromethyl)pyridin-2-yl)-1,3a,4,5,10,11a-hexahydro-2H-benzo[b]pyrrolo[2,3-f][1,4]diazocine-2,11(3H)-dione]
18 | 230000 M⁻¹ s⁻¹ | C=CC(=O)N1CCN2C[C@@H](CN3C[C@H]4CC(=O)N(c5cc(C(F)(F)F)cc(C)n5)[C@@H]4C(=O)N(C)c4cccc(F)c43)N(C)CC2C1 (single isomer, unassigned) [Example 140b]
19 | 1.05e+06 M⁻¹ s⁻¹ | Cc1cc(C(F)(F)F)cc(N2C(=O)C[C@@H]3CN(CCN4CCOC5(C4)CN(C(=O)/C=C/CN(C)C)C5)c4c(F)cccc4N(C)C(=O)[C@H]32)n1 [Example 27, (3aR,11aS)-5-(2-(2-((E)-4-(dimethylamino)but-2-enoyl)-5-oxa-2,8-diazaspiro[3.5]nonan-8-yl)ethyl)-6-fluoro-10-methyl-1-(6-methyl-4-(trifluoromethyl)pyridin-2-yl)-1,3a,4,5,10,11a-hexahydro-2H-benzo[b]pyrrolo[2,3-f][1,4]diazocine-2,11(3H)-dione Hydrochloride]
